What was measured:
Solubility to chloroform = assay type: physicochemical
Procedure: In this embodiment, an effect of introducing a substituent other than hydrogen into R^5 and R^6 of the compounds represented by the general formulas [Chem. 5] to [Chem. 8] will be described. […] In contrast, in the case where R^5 and R^6 are trimethylsilyl groups, the solubility to chloroform at 25° C. is 15.4 wt. %. Thus, it is possible to considerably improve the solubility by introducing the substituent into R^5 and R^6.

[1] = Cyclic voltammetry, oxidation potential; assay type: physicochemical; conditions: acetonitrile, tetrabutyl ammonium perchlorate, platinum electrodes
Procedure: The cyclic voltammetry measurements were conducted by using acetonitrile as a solvent and tetrabutyl ammonium perchlorate as a supporting electrolyte. Each of a working electrode and a counter electrode was made from platinum. […] […] Therefore, in the compounds represented by the general formulas [Chem. 5] to [Chem. 8], it is preferable that the cyclic structures are formed by R^1 and R^2 and by R^3 and R^4, and this is supported by the result of this example.

solubility to chloroform (Solubility to chloroform) | oxidation potential [1] | Compound
less than 1 wt. % | 1.20 V | c1cc(-c2scc3c2OCCO3)ccc1-c1scc2c1OCCO2 [Chem. 9, 1,4-di-(3,4-ethylenedioxy-2-thienyl)benzene]
– | 1.68 V | CCCCCCOc1csc(-c2ccc(-c3scc(OCCCCCC)c3OCCCCCC)cc2)c1OCCCCCC [Chem. 11, 1,4-bis(3,4-dihexyloxy-2-thienyl)benzene]

Reference: patent US20040258954A1, “Conjugated molecule and electroluminescent device thereof and electronic device having the electroluminescent device” (Semiconductor Energy Laboratory Co., Ltd., priority 2003, published 2004)
